In article PMC10949335, “Identification of a novel DNA repair inhibitor using an in silico driven approach shows effective combinatorial activity with genotoxic agents against multidrug‐resistant Escherichia coli” (Protein Science : A Publication of the Protein Society, 2024):
pIC50: −log10 of the molar value.

Key:
[1] = target: T1, UvrA-mNeonGreen (UvrA-mNG) (Escherichia coli, UniProt P0A698); experiment: C-trap optical tweezers, single-molecule DNA binding; format: biochemical; settings: 20 μM Bemcentinib; lambda DNA at 50 pN; 1 mM ATP, 10 mM MgCl2, pH 7.5
T1 construct: C-terminal mNeonGreen reporter fusion; plasmid as in Bernacchia et al. 2023

UvrA = target: T2, UvrA (Escherichia coli, UniProt P0A698); experiment: NADH-linked ATPase assay, Hill fit; format: biochemical
T2 construct: recombinant, IPTG-induced, Ni-NTA purified; plasmid as in Bernacchia et al. 2023; homodimer
T2 sequence (P0A698 whole entry): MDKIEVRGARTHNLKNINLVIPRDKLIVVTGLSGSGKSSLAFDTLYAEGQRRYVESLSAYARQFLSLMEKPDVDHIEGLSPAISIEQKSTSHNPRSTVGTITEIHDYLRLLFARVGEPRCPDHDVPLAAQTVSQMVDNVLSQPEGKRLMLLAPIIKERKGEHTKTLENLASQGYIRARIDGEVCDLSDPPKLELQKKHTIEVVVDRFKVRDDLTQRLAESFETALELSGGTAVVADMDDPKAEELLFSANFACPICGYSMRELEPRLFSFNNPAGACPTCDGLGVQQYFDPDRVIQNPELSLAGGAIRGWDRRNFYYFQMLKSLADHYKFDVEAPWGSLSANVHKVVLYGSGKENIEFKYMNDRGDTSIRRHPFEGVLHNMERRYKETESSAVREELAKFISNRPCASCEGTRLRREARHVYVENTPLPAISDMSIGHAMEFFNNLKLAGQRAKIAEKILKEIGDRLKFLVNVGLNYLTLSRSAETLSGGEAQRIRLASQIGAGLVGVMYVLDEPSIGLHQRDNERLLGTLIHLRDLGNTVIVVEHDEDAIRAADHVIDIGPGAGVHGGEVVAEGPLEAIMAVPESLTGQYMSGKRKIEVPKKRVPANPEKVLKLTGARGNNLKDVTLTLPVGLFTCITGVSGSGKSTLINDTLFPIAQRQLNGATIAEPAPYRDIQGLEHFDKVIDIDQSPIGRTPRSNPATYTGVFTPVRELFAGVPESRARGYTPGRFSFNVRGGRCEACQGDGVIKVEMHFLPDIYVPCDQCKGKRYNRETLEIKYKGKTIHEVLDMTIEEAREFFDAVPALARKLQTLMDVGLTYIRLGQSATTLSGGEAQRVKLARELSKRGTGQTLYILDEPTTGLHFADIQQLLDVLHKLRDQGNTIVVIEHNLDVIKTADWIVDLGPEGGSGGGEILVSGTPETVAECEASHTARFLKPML

T1 sequence (P0A698 whole entry, the tested form may be a part): as the sequence (P0A698 whole entry) above

Nc1nc(Nc2ccc3c(c2)CC[C@@H](N2CCCC2)CC3)nn1-c1cc2c(nn1)-c1ccccc1CCC2 [Bemcentinib]
% reduction in DNA binders per minute at 20 μM [1]: ~ 90%
pIC50 (UvrA): 5.13
